Converted amounts (≈) assume the structure as drawn. Peptide text beside a SMILES is read from it.
Experiments:
A. baumannii ATCC 19606 [1] = type: cell-based, Acinetobacter baumannii; conditions: ATCC 19606, 20 h
Text: (§1) The following Gram-negative bacteria were used in our study: A. baumannii ATCC 19606, E. coli ATCC 11775, E. coli AIC221 (E. coli MG1655 phnE_2::FRT), E. coli AIC222 (E. coli MG1655 pmrA53 phnE_2::FRT (colistin resistant)), K. pneumoniae ATCC 13883, P. aeruginosa PAO1 and P. aeruginosa PA14. The following Gram-positive bacteria were also used in our study: S. aureus ATCC 12600, S. aureus ATCC BAA-1556 (methicillin-resistant strain), E. faecalis ATCC 700802 (vancomycin-resistant strain) and E. faecium ATCC 700221 (vancomycin-resistant strain). Bacteria were grown from frozen stocks and plated on Luria–Bertani (LB) or Pseudomonas isolation agar plates (P. aeruginosa strains) and incubated overnight at 37 °C. After the incubation period, a single colony was transferred to 5 ml of LB medium, and cultures were incubated overnight (16 h) at 37 °C. The following day, an inoculum was prepared by diluting the overnight cultures 1:100 in 5 ml of the respective media and incubating them at 37 °C until bacteria reached logarithmic phase (OD600 = 0.3–0.5).
(§2) The in vitro antimicrobial activity of the peptides was assessed by using the broth microdilution assay. […] Aqueous solutions of the peptides were added to the plate at concentrations ranging from 1 to 64 μmol l^−1. […] The optical density of the plates was measured at 600 nm using a spectrophotometer. All assays were done as three biological replicates.

A. baumannii ATCC 19606 [2] = experiment: Cytoplasmic membrane depolarization assay (DiSC3-5); type: cell-based, Acinetobacter baumannii; conditions: DiSC3-5 fluorescence, peptide at its MIC, polymyxin B as positive control; three replicates
Procedure: The depolarization of the bacterial cytoplasmic membrane was determined by fluorescence measurements of the membrane potential-sensitive dye, DiSC3-5 (ref. [16]). Briefly, A. baumannii ATCC 19606 and P. aeruginosa PAO1 were grown at 37 °C until mid-log phase (OD600 = 0.5). The cells were then centrifuged using the same conditions described for the NPN uptake assays, washed twice with washing buffer containing 20 mmol l^−1 glucose and 5 mmol l^−1 HEPES (pH 7.2). The cells were diluted 1:10 (OD600 = 0.05) in a buffer containing 0.1 mol l^−1 KCl, 20 mmol l^−1 glucose and 5 mmol l^−1 HEPES (pH 7.2). About 100 μl of bacterial solution was then incubated for 15 min with 20 nmol l^−1 of DiSC3-5 until the fluorescence reached a plateau, that is, the dye was fully internalized into the bacterial membrane. Transmembrane potential changes were monitored by observing the difference in the fluorescence emission intensity of DiSC3-5 (λex = 622 nm, λem = 670 nm), after the addition of 100 μl of peptide aqueous solution at its MIC. All assays were performed in three biological replicates. The relative fluorescence values were calculated for the course of the experiment using non-linear fitting, and the untreated control (buffer + bacteria + fluorescent dye) served as baseline. The following equation was applied to show the percentage difference between the fluorescence of the untreated control (baseline) and the sample: Percentagedifference=100×(fluorescencesample−baseline)/baseline

HEK293T cells = conditions: 24 h
Summary of the method: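 5,000 cells/well seeded a day ahead in DMEM with 10% FBS, then treated with peptides; viability by MTT (0.5 mg/ml, 4 h, 37 °C), formazan in acidic isopropanol read at 570 nm. Concentration causing 50% lysis from non-linear regression; three biological replicates, two technical each.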

[3] = system: 11 clinically relevant bacterial pathogens; type: cell-based; conditions: Supplementary Dataset 2; against the 11 pathogens tested
Summary of the method: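 Broth microdilution with peptides at 1 to 64 μmol l^−1. Inocula came from overnight LB cultures diluted 1:100 and grown at 37 °C to log phase (OD600 = 0.3–0.5); growth read by OD600, three biological replicates.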

E. coli AIC221 = type: cell-based, Escherichia coli; conditions: AIC221, 20 h
Text: as §1, §2

E. coli ATCC 11775 = type: cell-based, Escherichia coli; conditions: ATCC 11775, 20 h
Text: as §1, §2

[4] = system: E. faecium ATCC 700221 (vancomycin-resistant strain); type: cell-based, Enterococcus faecium; conditions: ATCC 700221, 20 h
Text: as §1, §2

K. pneumoniae ATCC 13883 = type: cell-based, Klebsiella pneumoniae; conditions: ATCC 13883, 20 h
Text: as §1, §2

[5] = system: S. aureus ATCC BAA-1556 (methicillin-resistant strain); type: cell-based, Staphylococcus aureus; conditions: ATCC BAA-1556, 20 h
Text: as §1, §2

| SMILES | Minimal inhibitory concentration, A. baumannii ATCC19606 (A. baumannii ATCC 19606 [1]) | Cytoplasmic membrane depolarization, in words (A. baumannii ATCC 19606 [2]) | CC50 (HEK293T cells) | TI (therapeutic index) (HEK293T cells) | Active or Inactive [3] | Minimal inhibitory concentration, E. coli AIC221 (E. coli AIC221) | Minimal inhibitory concentration, E. coli ATCC11775 (E. coli ATCC 11775) | Minimal inhibitory concentration, E. faecium ATCC700221-VRE [4] | Minimal inhibitory concentration, K. pneumoniae ATCC133883 (K. pneumoniae ATCC 13883) | Minimal inhibitory concentration, S. aureus ATCC BAA-1556-MRSA [5] |
| --- | --- | --- | --- | --- | --- | --- | --- | --- | --- | --- |
| CC[C@H](C)[C@H](NC(=O)[C@H](CCCCN)NC(=O)[C@@H](N)CCCNC(=N)N)C(=O)N[C@@H](CC(C)C)C(=O)NCC(=O)N[C@@H](CC(=O)O)C(=O)N[C@@H](CC(C)C)C(=O)N[C@@H](CCCCN)C(=O)N[C@@H](Cc1ccccc1)C(=O)N[C@@H](CC(C)C)C(=O)N[C@@H](CCC(=O)O)C(=O)N[C@@H](CO)C(=O)N[C@@H](CC(C)C)C(=O)N[C@@H](CCCCN)C(=O)N[C@H](C(=O)N[C@@H](Cc1ccc(O)cc1)C(=O)O)[C@@H](C)O [Anomalopterin-1] (H-RKILGDLKFLESLKTY-OH; N-terminus and C-terminus assumed) | 64 µM (≈ 123 µg/mL) | most potent depolarization effects | > 128 µM | > 2 | Active | – | – | – | – | – |
| CC[C@H](C)[C@H](NC(=O)[C@H](Cc1ccc(O)cc1)NC(=O)[C@H](C)NC(=O)[C@@H](N)CCCNC(=N)N)C(=O)N[C@@H](CS)C(=O)N[C@@H](CCCNC(=N)N)C(=O)N[C@@H](CCCCN)C(=O)N[C@@H](CCCCN)C(=O)N[C@@H](Cc1ccccc1)C(=O)N[C@@H](CC(C)C)C(=O)N[C@@H](CO)C(=O)N[C@@H](CC(C)C)C(=O)N[C@@H](CCCNC(=N)N)C(=O)N[C@@H](CCCCN)C(=O)N[C@@H](C)C(=O)N[C@@H](CO)C(=O)N[C@H](C(=O)N[C@@H](CCCCN)C(=O)N[C@@H](CC(C)C)C(=O)N[C@@H](CCC(N)=O)C(=O)N[C@@H](CO)C(=O)N[C@@H](CC(C)C)C(=O)N[C@H](C(=O)N[C@@H](CCCNC(=N)N)C(=O)N[C@@H](CCSC)C(=O)N[C@@H](CCCCN)C(=O)O)C(C)C)[C@@H](C)CC [Equusin-2] (H-RAYICRKKFLSLRKASIKLQSLVRMK-OH; N-terminus and C-terminus assumed) | 8 µM (≈ 25.1 µg/mL) | most potent depolarization effects | > 128 µM | > 16 | Active | 16 µM (≈ 50.2 µg/mL) | – | – | – | – |
| CC[C@H](C)[C@H](NC(=O)[C@H](CC(C)C)NC(=O)[C@H](CCCNC(=N)N)NC(=O)[C@H](Cc1c[nH]c2ccccc12)NC(=O)[C@H](CC(C)C)NC(=O)[C@@H](NC(=O)[C@H](CCCNC(=N)N)NC(=O)[C@H](CCC(N)=O)NC(=O)[C@H](Cc1ccc(O)cc1)NC(=O)[C@H](CC(C)C)NC(=O)[C@@H](N)CCCCN)[C@@H](C)CC)C(=O)N[C@@H](CO)C(=O)N[C@@H](CCC(=O)O)C(=O)N[C@@H](CC(C)C)C(=O)O [Equusin-3] (H-KLYQRILWRLISEL-OH; N-terminus and C-terminus assumed) | – | – | > 128 µM | – | Active | 4 µM (≈ 7.32 µg/mL) | 16 µM (≈ 29.3 µg/mL) | 8 µM (≈ 14.6 µg/mL) | – | – |
| CC[C@H](C)[C@H](NC(=O)[C@@H](NC(=O)[C@H](Cc1c[nH]c2ccccc12)NC(=O)[C@H](CCCCN)NC(=O)[C@@H](N)CCCCN)C(C)C)C(=O)N[C@@H](CCCCN)C(=O)N[C@@H](CO)C(=O)N[C@H](C(=O)N[C@H](C(=O)N[C@@H](Cc1ccccc1)C(=O)N[C@@H](Cc1ccccc1)C(=O)N[C@@H](CCCCN)C(=O)O)C(C)C)C(C)C [Hesperelin-2] (H-KKWVIKSVVFFK-OH; N-terminus and C-terminus assumed) | 16 µM (≈ 24.1 µg/mL) | – | > 128 µM | – | Active | 8 µM (≈ 12.1 µg/mL) | – | 8 µM (≈ 12.1 µg/mL) | 32 µM (≈ 48.3 µg/mL) | 16 µM (≈ 24.1 µg/mL) |
| CC[C@H](C)[C@H](NC(=O)CNC(=O)[C@H](Cc1c[nH]cn1)NC(=O)[C@H](CC(N)=O)NC(=O)[C@H](CCCCN)NC(=O)[C@H](CCC(N)=O)NC(=O)[C@@H](N)CCCNC(=N)N)C(=O)N[C@@H](Cc1c[nH]cn1)C(=O)N[C@@H](Cc1ccccc1)C(=O)N[C@@H](CCCNC(=N)N)C(=O)N[C@H](C(=O)N[C@@H](CC(C)C)C(=O)N[C@@H](C)C(=O)N[C@@H](CCCCN)C(=O)N[C@@H](C)C(=O)N[C@@H](CC(C)C)C(=O)N[C@@H](CCCNC(=N)N)C(=O)O)C(C)C [Hesperelin-3] (H-RQKNHGIHFRVLAKALR-OH; N-terminus and C-terminus assumed) | – | most potent depolarization effects | – | – | Active | – | – | – | – | – |
| CC[C@H](C)[C@H](NC(=O)[C@H](Cc1ccccc1)NC(=O)[C@@H](N)CCCCN)C(=O)N[C@@H](CC(C)C)C(=O)N[C@@H](CC(N)=O)C(=O)N[C@@H](Cc1ccccc1)C(=O)N[C@@H](CCCCN)C(=O)N[C@H](C(=O)N1CCC[C@H]1C(=O)N[C@H](C(=O)N[C@@H](CO)C(=O)N[C@@H](Cc1ccccc1)C(=O)N[C@@H](CCCCN)C(=O)O)[C@@H](C)CC)[C@@H](C)CC [Pinguinusin-1] (H-KFILNFKIPISFK-OH; N-terminus and C-terminus assumed) | 32 µM (≈ 51 µg/mL) | – | > 128 µM | – | Active | 4 µM (≈ 6.38 µg/mL) | 16 µM (≈ 25.5 µg/mL) | – | 16 µM (≈ 25.5 µg/mL) | – |
| CC[C@H](C)[C@H](N)C(=O)N[C@@H](CO)C(=O)N[C@@H](CC(C)C)C(=O)N[C@@H](Cc1ccccc1)C(=O)N[C@H](C(=O)N[C@@H](CCCNC(=N)N)C(=O)N1CCC[C@H]1C(=O)N[C@@H](CC(C)C)C(=O)N[C@@H](C)C(=O)N[C@@H](CC(C)C)C(=O)NCC(=O)N[C@H](C(=O)N[C@@H](CCCNC(=N)N)C(=O)N[C@@H](CC(C)C)C(=O)O)C(C)C)[C@@H](C)CC [Psephotellin-1] (H-ISLFIRPLALGVRL-OH; N-terminus and C-terminus assumed) | 32 µM (≈ 50.2 µg/mL) | – | > 128 µM | – | Active | 16 µM (≈ 25.1 µg/mL) | 16 µM (≈ 25.1 µg/mL) | – | 32 µM (≈ 50.2 µg/mL) | – |
| CC[C@H](C)[C@H](NC(=O)[C@H](CCCCN)NC(=O)[C@@H](NC(=O)[C@H](Cc1c[nH]c2ccccc12)NC(=O)[C@H](CCCCN)NC(=O)[C@@H](N)CCCCN)[C@@H](C)O)C(=O)N[C@@H](Cc1ccc(O)cc1)C(=O)N[C@@H](CO)C(=O)N1CCC[C@H]1C(=O)N[C@@H](CC(C)C)C(=O)N[C@@H](CO)C(=O)N[C@@H](CC(C)C)C(=O)O [Smilodin-1] (H-KKWTKIYSPLSL-OH; N-terminus and C-terminus assumed) | – | – | > 128 µM | > 2 | Active | – | – | – | 64 µM (≈ 93.7 µg/mL) | – |
